Among the data in patent publication US8153809B2, “Dihydropyridone ureas as P2X7 modulators” (Roche Palo Alto LLC, priority 2008, dated 2012) are pIC50 values, retold here.

The target in the assay is T1, P2X7 (UniProt Q99572).
T1 sequence (Q99572 1-595): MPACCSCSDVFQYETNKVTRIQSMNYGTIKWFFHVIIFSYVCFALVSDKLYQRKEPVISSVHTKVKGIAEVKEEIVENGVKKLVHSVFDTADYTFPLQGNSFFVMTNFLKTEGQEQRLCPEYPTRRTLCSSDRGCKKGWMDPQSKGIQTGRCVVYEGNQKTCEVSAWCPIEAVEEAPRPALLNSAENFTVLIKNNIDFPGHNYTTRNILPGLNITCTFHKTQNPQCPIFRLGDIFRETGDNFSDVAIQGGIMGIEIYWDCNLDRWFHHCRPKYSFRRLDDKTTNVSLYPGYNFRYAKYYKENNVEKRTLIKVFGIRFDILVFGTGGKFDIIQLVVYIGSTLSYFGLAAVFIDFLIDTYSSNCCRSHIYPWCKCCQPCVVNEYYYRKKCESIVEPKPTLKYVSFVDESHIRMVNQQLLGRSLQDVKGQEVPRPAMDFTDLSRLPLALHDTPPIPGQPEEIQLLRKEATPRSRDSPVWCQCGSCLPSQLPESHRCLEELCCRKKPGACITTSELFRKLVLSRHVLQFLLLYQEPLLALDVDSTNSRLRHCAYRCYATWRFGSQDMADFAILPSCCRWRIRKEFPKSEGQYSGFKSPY
Put plainly: pIC50 values for P2X7 (Table 1). The format is cell-based. The method in brief:
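Fluo-3-loaded 1321N1 cells expressing human P2X7 or HEK293 cells expressing rat P2X7, preincubated 20 min at room temperature with antagonist in HBSS/Hepes/probenecid buffer with 2 mM CaCl2. BzATP agonist at 100 μM final (human) or 5 μM final (rat); fluorescence read 5 min, peak normalized to 5 μM ionomycin response.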
In the case of `O=C1C=CN(C(=O)NC23CC4CC(CC(C4)C2)C3)C(c2ccc(F)cc2)C1` (centres unmarked) [Compound 64, 2-(4-Fluoro-phenyl)-4-oxo-3,4-dihydro-2H-pyridine-1-carboxylic acid adamantan-1-ylamide], the pIC50 (commonly the IC50 on a negative log10 scale, so that one unit is a factor of ten) is 5.98.

Regarding `Cc1c(NC(=O)N2C=CC(=O)C[C@H]2c2ccc(F)cc2)ccc2ncccc12` [Compound 125, (S)-2-(4-Fluoro-phenyl)-4-oxo-3,4-dihydro-2H-pyridine-1-carboxylic acid (5-methyl-quinolin-6-yl)-amide], the pIC50 was 7.16.

On to `COc1cc(NC(=O)N2C=CC(=O)C[C@H]2c2ccc(F)cc2)c(Br)cc1C(N)=O` [Compound 60, (S)-2-(4-Fluoro-phenyl)-4-oxo-3,4-dihydro-2H-pyridine-1-carboxylic acid (2-bromo-4-carbamoyl-5-methoxy-phenyl)-amide], for which the negative logarithm of the IC50 (pIC50) is reported as 5.78.

The compound `CS(=O)(=O)c1cc(NC(=O)N2C=CC(=O)C[C@H]2c2ccc(F)cc2)c(Br)cc1Cl` [Compound 15, (S)-2-(4-Fluoro-phenyl)-4-oxo-3,4-dihydro-2H-pyridine-1-carboxylic acid (2-bromo-4-chloro-5-methanesulfonyl-phenyl)-amide] gave a pIC50 of 5.94.

As for `Cc1cc(C)c(Br)c(NC(=O)N2C=CC(=O)C[C@H]2c2ccc(F)cc2)c1` [Compound 99, (S)-2-(4-Fluoro-phenyl)-4-oxo-3,4-dihydro-2H-pyridine-1-carboxylic acid (2-bromo-3,5-dimethyl-phenyl)-amide], the pIC50 is 7.98.

`O=C1C=CN(C(=O)Nc2cc(F)c(F)cc2Br)C(c2ccc(F)cc2)C1` (centres unmarked) [Compound 157, 2-(4-Fluoro-phenyl)-4-oxo-3,4-dihydro-2H-pyridine-1-carboxylic acid (2-bromo-4,5-difluoro-phenyl)-amide] had a pIC50 of 6.43.

Turning to `CNC(=O)COc1cc(NC(=O)N2C=CC(=O)C[C@H]2c2ccc(F)cc2)c(Br)cc1Cl` [Compound 25, (S)-2-(4-Fluoro-phenyl)-4-oxo-3,4-dihydro-2H-pyridine-1-carboxylic acid (2-bromo-4-chloro-5-methylcarbamoylmethoxy-phenyl)-amide], the pIC50 was 6.785.

In turn, `Cn1ccc2cc(NC(=O)N3C=CC(=O)C[C@H]3c3ccc(F)cc3)ccc21` [Compound 116, (S)-2-(4-Fluoro-phenyl)-4-oxo-3,4-dihydro-2H-pyridine-1-carboxylic acid (1-methyl-1H-indol-5-yl)-amide] gave a pIC50 of 7.405.

For the compound `Cc1cc(NC(=O)N2C=CC(=O)CC2c2ccc(F)cc2)n(C)n1` (centres unmarked) [Compound 108, 2-(4-Fluoro-phenyl)-4-oxo-3,4-dihydro-2H-pyridine-1-carboxylic acid (2,5-dimethyl-2H-pyrazol-3-yl)-amide], the pIC50 is reported as 6.043.

For the compound `COCCOc1cc(NC(=O)N2C=CC(=O)C[C@H]2c2ccc(F)cc2)c(Br)cc1Cl` [Compound 33, (S)-2-(4-Fluoro-phenyl)-4-oxo-3,4-dihydro-2H-pyridine-1-carboxylic acid [2-bromo-4-chloro-5-(2-methoxy-ethoxy)-phenyl]-amide], the pIC50 is reported as 7.27.

In turn, `COc1cc(NC(=O)N2C=CC(=O)C[C@H]2c2ccc(F)cc2)c(Br)cc1C#N` [Compound 63, (S)-2-(4-Fluoro-phenyl)-4-oxo-3,4-dihydro-2H-pyridine-1-carboxylic acid (2-bromo-4-cyano-5-methoxy-phenyl)-amide] returned a pIC50 of 6.74.

Regarding `Cc1cc(F)c(F)cc1NC(=O)N1C=CC(=O)C[C@H]1c1ccc(F)cc1` [Compound 155, (S)-2-(4-Fluoro-phenyl)-4-oxo-3,4-dihydro-2H-pyridine-1-carboxylic acid (4,5-difluoro-2-methyl-phenyl)-amide], the negative logarithm of the IC50 (pIC50) stood at 7.12.

In turn, `COc1ccc(S(C)(=O)=O)cc1NC(=O)N1C=CC(=O)CC1c1ccc(F)cc1` (centres unmarked) [Compound 56, 2-(4-Fluoro-phenyl)-4-oxo-3,4-dihydro-2H-pyridine-1-carboxylic acid (5-methanesulfonyl-2-methoxy-phenyl)-amide] showed a pIC50 of 5.11.

Regarding `CNC(=O)c1cccc(NC(=O)N2C=CC(=O)C[C@H]2c2ccc(F)cc2)c1C` [Compound 141, (S)-2-(4-Fluoro-phenyl)-4-oxo-3,4-dihydro-2H-pyridine-1-carboxylic acid (2-methyl-3-methylcarbamoyl-phenyl)-amide], the pIC50 was found to be 6.185.

In turn, `Cc1cccc(NC(=O)N2C=CC(=O)C[C@H]2c2ccc(F)cc2)c1C` [Compound 97, (S)-2-(4-Fluoro-phenyl)-4-oxo-3,4-dihydro-2H-pyridine-1-carboxylic acid (2,3-dimethyl-phenyl)-amide] returned a pIC50 of 7.74.

Take `Cc1c(CO)cccc1NC(=O)N1C=CC(=O)C[C@H]1c1ccc(F)cc1` [Compound 139, (S)-2-(4-Fluoro-phenyl)-4-oxo-3,4-dihydro-2H-pyridine-1-carboxylic acid (3-hydroxymethyl-2-methyl-phenyl)-amide]: the negative logarithm of the IC50 (pIC50) is recorded as 7.79.

With `Cc1cc(Cl)c(CN2CCOCC2)cc1NC(=O)N1C=CC(=O)C[C@H]1c1ccc(F)cc1` [Compound 129, (S)-2-(4-Fluoro-phenyl)-4-oxo-3,4-dihydro-2H-pyridine-1-carboxylic acid (4-chloro-2-methyl-5-morpholin-4-ylmethyl-phenyl)-amide], the pIC50 stood at 6.945.

Regarding `COc1cc(NC(=O)N2C=CC(=O)C[C@H]2c2cccc(F)c2)c(Br)cc1OC(F)F` [Compound 46, (S)-2-(3-Fluoro-phenyl)-4-oxo-3,4-dihydro-2H-pyridine-1-carboxylic acid (2-bromo-4-difluoromethoxy-5-methoxy-phenyl)-amide], the pIC50 was 7.293.

Compound `COc1cc(NC(=O)N2C=CC(=O)C[C@H]2c2ccc(F)cc2)c(F)cc1C` [Compound 49, (S)-2-(4-Fluoro-phenyl)-4-oxo-3,4-dihydro-2H-pyridine-1-carboxylic acid (2-fluoro-5-methoxy-4-methyl-phenyl)-amide] came in with a pIC50 of 7.21.

`O=C1C=CN(C(=O)Nc2ccc3ncsc3c2)C(c2ccc(F)cc2)C1` (centres unmarked) [Compound 117, 2-(4-Fluoro-phenyl)-4-oxo-3,4-dihydro-2H-pyridine-1-carboxylic acid benzothiazol-6-ylamide] registered a pIC50 of 6.31.

`O=C1C=CN(C(=O)Nc2cc3c(cc2Br)OC(F)(F)O3)[C@H](c2ccc(F)cc2)C1` [Compound 61, (S)-2-(4-Fluoro-phenyl)-4-oxo-3,4-dihydro-2H-pyridine-1-carboxylic acid (6-bromo-2,2-difluoro-benzo[1,3]dioxol-5-yl)-amide] showed a pIC50 of 6.365. The pIC50 values of the last two compounds are within 0.2 log units of each other.

In turn, `O=C1C=CN(C(=O)Nc2cc(OCCO)c(Cl)cc2Br)[C@H](c2ccc(F)cc2)C1` [Compound 40, (S)-2-(4-Fluoro-phenyl)-4-oxo-3,4-dihydro-2H-pyridine-1-carboxylic acid [2-bromo-4-chloro-5-(2-hydroxy-ethoxy)-phenyl]-amide] gave a pIC50 of 7.607.

For `COc1cc(Br)c(NC(=O)N2C=CC(=O)C[C@H]2c2cccc(F)c2)cc1OC` [Compound 19, (S)-2-(3-Fluoro-phenyl)-4-oxo-3,4-diohydro-2H-pyridine-1-carboxylic acid (2-bromo-4,5-dimethoxy-phenyl)-amide], the pIC50 stood at 8.56.

Compound `CCc1cc2ncccc2cc1NC(=O)N1C=CC(=O)C[C@H]1c1ccc(F)cc1` [Compound 153, (S)-2-(4-Fluoro-phenyl)-4-oxo-3,4-dihydro-2H-pyridine-1-carboxylic acid (7-ethyl-quinolin-6-yl)-amide] had a pIC50 of 7.85.

For `CC(=O)c1cc(NC(=O)N2C=CC(=O)C[C@H]2c2ccc(F)cc2)c(Br)cc1Cl` [Compound 51, (S)-2-(4-Fluoro-phenyl)-4-oxo-3,4-dihydro-2H-pyridine-1-carboxylic acid (5-acetyl-2-bromo-4-chloro-phenyl)-amide], the negative logarithm of the IC50 (pIC50) worked out at 6.857.

As to `COc1cccc(NC(=O)N2C=CC(=O)C[C@H]2c2ccc(F)cc2)c1C` [Compound 132, (S)-2-(4-Fluoro-phenyl)-4-oxo-3,4-dihydro-2H-pyridine-1-carboxylic acid (3-methoxy-2-methyl-phenyl)-amide], the pIC50 came out at 8.57.

`Cc1c(Cl)cccc1NC(=O)N1C=CC(=O)C[C@H]1c1ccc(F)cc1` [Compound 138, (S)-2-(4-Fluoro-phenyl)-4-oxo-3,4-dihydro-2H-pyridine-1-carboxylic acid (3-chloro-2-methyl-phenyl)-amide] displayed a pIC50 of 8.34.

Turning to `COc1ccc(NC(=O)N2C=CC(=O)C[C@H]2c2ccc(F)cc2)c(C)c1` [Compound 100, (S)-2-(4-Fluoro-phenyl)-4-oxo-3,4-dihydro-2H-pyridine-1-carboxylic acid (4-methoxy-2-methyl-phenyl)-amide], the pIC50 worked out at 7.05.

The compound `COc1ccc(C)c(NC(=O)N2C=CC(=O)C[C@H]2c2cccc(F)c2)c1` [Compound 53, (S)-2-(3-Fluoro-phenyl)-4-oxo-3,4-dihydro-2H-pyridine-1-carboxylic acid (5-methoxy-2-methyl-phenyl)-amide] displayed a pIC50 of 8.01.
